The values below come from paper PMC4865820, “Branched Peptide, B2088, Disrupts the Supramolecular Organization of Lipopolysaccharides and Sensitizes the Gram-negative Bacteria” (Scientific Reports, 2016).

The subject of experiment [1] is K. pneumonia 4299. Description: microbe, parasite or virus in culture. The class given is cell-based, K. pneumoniae. Particulars: for MIC: Klebsiella pneumoniae, 4299, individual peptide/antibiotics, read-out: MIC against K. pneumoniae 4299. Put shortly: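 Peptides two-fold diluted in Mueller-Hinton Broth (0.0976–50 μg/ml final) against 10^5–10^6 CFU/ml inoculum, 37 °C for 24 h with OD600 monitored every 30 min. MIC = lowest concentration with no visible growth; two independent duplicates.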

Experiment [2] relates to A549 cells infected with P. aeruginosa ATCC 9027. Description: Intracellular bacterial load in infected A549 cells. Particulars: 24 h; for Intracellular bacterial load: antibiotic alone, gatifloxacin at 2 μg/ml. The class given is cell-based. The protocol:
Human lung A549 epithelial cells (ATCC CCL185) were seeded at a density of 10^5 cells/well in a 24 well plate. Next day cells were infected with P. aeroginosa 9027 strains at the multiplicity of infection of 5 for 2 h. Cells were then washed thrice with PBS followed by DMEM to remove the extracellular bacteria. The washed cells were subsequently treated with 200 μg/ml gentamicin to kill any extracellular bacteria. After 1 h cells were washed with PBS again to remove the dead bacteria and the cells were either mixed with antibiotics (Tobramycin or Gatifloxacin) alone or in combination with B2088. After 24 h, the cells were lysed with 0.1% Triton-X100 and the lysates were serially diluted and plated on to a tryptic soy agar (TSA) plates for colony counting.

Experiment [3] has as its system K. pneumoniae 31158. As to the kind of experiment: microbe, parasite or virus in culture. It counts as cell-based. Particulars: for MIC: Klebsiella pneumoniae, 31158, individual peptide/antibiotics, read-out: MIC against K. pneumoniae 31158.
Experiment [4] concerns K. pneumoniae 07955. As to the kind of experiment: microbe, parasite or virus in culture. It counts as cell-based. Conditions: for MIC: Klebsiella pneumoniae, 07955, individual peptide/antibiotics, read-out: MIC against K. pneumoniae 07955.
Experiment [5] relates to P. aeruginosa DR4877/07. The class given is cell-based. Particulars: for FICI of B2088-antibiotic combination: lowest FICI reported, two independent duplicates; for Fractional inhibitory concentration of peptide/PMB, combination with Chloarm / Fractional inhibitory concentration of peptide/PMB, combination with Erythro / Fractional inhibitory concentration of peptide/PMB, combination with Levo / Fractional inhibitory concentration of peptide/PMB, combination with Tobra: first number in parenthesis; for Fractional inhibitory concentration of antibiotic, Chloarm combination / Fractional inhibitory concentration of antibiotic, Erythro combination / Fractional inhibitory concentration of antibiotic, Levo combination / Fractional inhibitory concentration of antibiotic, Tobra combination: second number in parenthesis; for Fold decrease in the MIC of antibiotics at sub-lethal/sub-inhibitory concentrations of B2088: multidrug resistant P. aeruginosa 4877. Put shortly:
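Checkerboard combinations of peptide and antibiotic, each 2-fold diluted up to 1× MIC in MHB, were tested against ~10^6 CFU/ml final inoculum. Plates were incubated 24 h at 37 °C, with growth read at OD600. FICI was the sum of the combination-to-alone MIC ratios for each agent, and the lowest FICI from duplicate experiments was reported.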

The subject of experiment [6] is E. coli D21 and LPS outer core polysaccharide truncated mutant strains. As to the kind of experiment: MIC ratio against LPS-truncated E. coli mutants. It counts as cell-based. Conditions: oligosaccharide-truncated mutants vs wild type D21; increase seen against D21e9 lacking outer core polysaccharides. The source says: LPS is a complex glycosylated lipid molecule comprising of a hydrophobic lipid A and core oligosaccharides. The core oligosaccharides are structurally divided into an inner core (lipid A proximal) region and an outer core O-antigen region (Fig. 4a). To ascertain if the alterations in OM polysaccharides modify the barrier penetration and antimicrobial properties of the peptides, we determined the MIC of the peptides against 4 cell-wall defective mutants of E. coli (Fig. 4a). We report the MIC ratio (i.e., MICmut/MICwt) which is the ratio of MIC of peptides/antibiotics against oligosaccharides truncated mutant strains over MIC of wild type (D21) strains. For antibiotics that access intracellular targets through porin pathways or peptides that bind to the lipid A part of the LPS, the MIC ratio is independent of LPS truncation (Fig. 4b). However, antibiotics or peptides which interact with outer or inner core polysaccharides of the LPS are expected to show changes in the MIC ratio.
All the peptide congeners were purchased from M/s. Mimotopes Pty Ltd, Australia. The peptides were used as such and the homogeneity of peptides were confirmed by HPLC. Unless otherwise stated all the chemicals and the antibiotics tested were purchased from Sigma Aldrich (Singapore) Pte Ltd. The florescent probe, BODIPY TR cadaverine (BC) was purchased from Molecular Probes/ Invitrogen (CA, USA). E. coli LPS outer core polysaccharide truncated mutant strains were obtained from CGSG, The Coli Genetic Stock Centre, Yale University, […], USA. Relevant genotype of the strains are, D21 (rfa+); D21e19 (rfa-11) is a deficient mutant in carbohydrates close to the O-antigen part; D21e7 (rfa-1) is deficient in galactose as well as O-antigen; D21f1 (rfa-1, rfa21) lacks phosphate groups in the LPS has glucose and heptose intact; D21f2 (rfa-1, rfa-31) is deficient in heptose of the inner core[57][58].
MIC of each peptide was determined using the microdilution method in a 96 well microtitre plates (SPL Life Sciences Co., Ltd, Korea). Two-fold serial dilutions of each peptide in Mueller-Hinton Broth (MHB) was prepared from a 1 mg/ml stock solution of the peptide in the same broth, to obtain a final concentration in the range of 0.0976–50 μg/ml in each well. Bacterial suspensions (P. aeruginosa ATCC 27853, P. aeruginosa 4877, P. aeruginosa 23155, K. pneumoniae ATCC 10031 and K. pneumoniae 4299) were prepared by suspending the overnight cultured bacteria in saline and adjusting the inoculum to ~10^8 colony forming units (CFU) per ml. A further 150-fold dilution was then prepared in MHB to achieve a final cell density of 10^5–10^6 CFU/ml. In each well, 100 μl of inoculum was mixed with the equal volume of peptides at their 2× concentration. Positive and negative controls contained 200 μl of inoculum (without any peptide) and broth alone (no peptide/inoculum) respectively. Another negative control in which MHB containing 200 μl of peptide alone in its highest concentration tested (50 μg/ml) was also included to ensure that the optical density measured in the test wells was not due to turbidity of the peptides in solution. The 96 well polystyrene plates were then incubated at 37 °C for 24 h and the optical density at 600 nm (OD600) was measured every 30 min continuously using a TECAN microplate reader (TECAN Infinite 200, Austria). All the experiments were performed in two independent duplicates and the MIC was determined as the lowest peptide concentration in which no visible growth was observed.

Where [7] appears, read: MIC of B2088 6.25 μg/ml, MHB, ~10^6 CFU/ml, 37 °C, 24 h.

≈ marks a conversion by molar mass, not a printed value. Marks after values point to notes of the source that are not given here. Positions of bridges follow the written chain, without caps; N, C: chain ends. Non-standard residues stand in square brackets, D forms with d. Residues, ends and D or L forms follow the SMILES beside them. Chains are numbered I, II in the order given. *: point of attachment. X1 = CC[C@H](C)CCCCC(=O)*; Dab = NCC[C@H](N)C(=O)O

`COc1c(N2CCNC(C)C2)c(F)cc2c(=O)c(C(=O)O)cn(C3CC3)c12` (stereo not drawn) [Gatifloxacin]: the MIC in experiment [1] turned out to be 1.56 µg/mL (≈ 4.16 µM). Moreover, the Intracellular bacterial load result in experiment [2] was “marked decrease in the intracellular bacterial burden”. Also, the MIC in experiment [3] came to 1.56 µg/mL (≈ 4.16 µM). The MIC in experiment [4] stood at 1.56 µg/mL (≈ 4.16 µM). Moreover, in experiment [5], the “FICI of polymyxin B-antibiotic combination” value was found to be 0.63 and the “FICI of B2088-antibiotic combination” value came to 0.63. Besides, in experiment [5] (setting [7]), the “MIC of antibiotics in the presence of ¼× sub-MIC of B2088” value is 15.6 µg/mL, the “MIC of antibiotics in the presence of ½× sub-MIC of B2088” value is 7.8 µg/mL and the “MIC of antibiotics in the presence of ⅛× sub-MIC of B2088” value stood at 15.6 µg/mL.
Take `CC[C@H](C)CCCCC(=O)N[C@@H](CCN)C(=O)N[C@H](C(=O)N[C@@H](CCN)C(=O)N[C@H]1CCNC(=O)[C@H]([C@@H](C)O)NC(=O)[C@H](CCN)NC(=O)[C@H](CCN)NC(=O)[C@H](CC(C)C)NC(=O)[C@@H](Cc2ccccc2)NC(=O)[C@H](CCN)NC1=O)[C@@H](C)O` [Polymyxin B, polymyxin B, reference compound] (X1-[Dab]T[Dab][Dab][Dab][dF]L[Dab][Dab]T; lactam 4-C (inferred); N-terminus assumed): in experiment [1] (MHB, 10^5–10^6 CFU/ml, 37 °C, 24 h, two independent duplicates), the “Minimum Inhibitory Concentration against K. pneumonia 4299” value turned out to be 1.13 µM. The “MIC ratio (MICmut/MICwt)” value in experiment [6] is “did not show any change”. In addition, in experiment [5], the “Fractional inhibitory concentration of peptide/PMB, combination with Chloarm” value worked out at 0.125; the “Fractional inhibitory concentration of peptide/PMB, combination with Erythro” value was 0.25; the “Fractional inhibitory concentration of peptide/PMB, combination with Levo” value was determined as 0.5; the “Fractional inhibitory concentration of peptide/PMB, combination with Tobra” value is “(0.5,0.5)”. For the same compound, in experiment [5], the “Fractional inhibitory concentration of antibiotic, Chloarm combination” value came out at 0.5; the “Fractional inhibitory concentration of antibiotic, Erythro combination” value was found to be 0.5; the “Fractional inhibitory concentration of antibiotic, Levo combination” value is given as 0.25; the “Fractional inhibitory concentration of antibiotic, Tobra combination” value is “(0.5,0.5)”. In experiment [5] (peptide + chloramphenicol), the “Fractional Inhibitory Concentration Index with Chloarm” value is given as 0.63. The “Fractional Inhibitory Concentration Index with Erythro” value in experiment [5] (peptide + erythromycin) is listed as 0.75. In addition, in experiment [5] (peptide + levofloxacin), the “Fractional Inhibitory Concentration Index with Levo” value worked out at 0.75. The “Fractional Inhibitory Concentration Index with Tobra” value in experiment [5] (peptide + tobramycin) amounted to 1.0.
Regarding `CC(C)[C@H](NC(=O)[C@H](CCCCN)NC(=O)[C@H](CCCNC(=N)N)NC(=O)CNC(=O)[C@@H](N)CCCNC(=N)N)C(=O)N[C@H](C(=O)N[C@@H](CCCNC(=N)N)C(=O)N[C@@H](CCCNC(=N)N)C(=O)NCCCC[C@H](NC(=O)[C@H](CCCNC(=N)N)NC(=O)[C@H](CCCNC(=N)N)NC(=O)[C@@H](NC(=O)[C@@H](NC(=O)[C@H](CCCCN)NC(=O)[C@H](CCCNC(=N)N)NC(=O)CNC(=O)[C@@H](N)CCCNC(=N)N)C(C)C)C(C)C)C(=O)N[C@@H](CCCCN)C(=O)O)C(C)C` [B2088] (I: H-RGRKVVRRKK-OH / II: H-RGRKVVRR; amide I:9-II:C; N-terminus and C-terminus assumed), in experiment [1] (24 h), the “MIC against K. pneumoniae 4299” value came out at 12.5 µg/mL (≈ 5.46 µM) and the “Minimum Inhibitory Concentration against K. pneumonia 4299” value was found to be 2.7 µM. Besides, the Intracellular bacterial burden entry in experiment [2] (B2088 alone at 200 μg/ml) is recorded as “did not decrease the intracellular bacterial burden”. Also, in experiment [6], the “MIC ratio (MICmut/MICwt)” value is “no apparent change”. Also, the “MIC against K. pneumoniae 31158” value in experiment [3] (31158, 24 h) is 12.5 µg/mL (≈ 5.46 µM). Further, in experiment [4] (07955, 24 h), the “MIC against K. pneumoniae 07955” value came to 6.25 µg/mL (≈ 2.73 µM). In experiment [5], the “Fractional inhibitory concentration of peptide/PMB, combination with Chloarm” value is “(0.25,0.25)”; the “Fractional inhibitory concentration of peptide/PMB, combination with Erythro” value was “(0.5,0.5) ^‡”; the “Fractional inhibitory concentration of peptide/PMB, combination with Levo” value is “(0.5,0.5)”; the “Fractional inhibitory concentration of peptide/PMB, combination with Tobra” value was “(0.25,0.25)”. In addition, in experiment [5], the “Fold decrease in the MIC of antibiotics at sub-lethal/sub-inhibitory concentrations of B2088” value is 2-8 fold; the “Fractional inhibitory concentration of antibiotic, Chloarm combination” value is reported as “(0.25,0.25)”; the “Fractional inhibitory concentration of antibiotic, Erythro combination” value is “(0.5,0.5) ^‡”; the “Fractional inhibitory concentration of antibiotic, Levo combination” value is listed as “(0.5,0.5)”. The “Fractional inhibitory concentration of antibiotic, Tobra combination” value in experiment [5] was “(0.25,0.25)”.
For `NC[C@H]1O[C@H](O[C@H]2[C@H](O)[C@@H](O[C@H]3O[C@H](CO)[C@@H](O)[C@H](N)[C@H]3O)[C@H](N)C[C@@H]2N)[C@H](N)C[C@@H]1O` [Tobramycin], in experiment [1], the MIC came out at 0.024 µg/mL (≈ 0.0513 µM). Moreover, the Intracellular bacterial load result in experiment [2] is listed as “decreased the intracellular bacterial load”. Moreover, the “MIC ratio (MICmut/MICwt)” value in experiment [6] is given as “marked increase”. Besides, the MIC in experiment [3] came to 0.012 µg/mL (≈ 0.0257 µM). The MIC in experiment [4] came to 25 µg/mL (≈ 53.5 µM). In addition, in experiment [5], the “FICI of polymyxin B-antibiotic combination” value is given as 1.0, the “FICI of B2088-antibiotic combination” value worked out at 0.5 and the “Fold decrease in the MIC of antibiotics at sub-lethal/sub-inhibitory concentrations of B2088” value amounted to 4 fold. Also, in experiment [5] (setting [7]), the “MIC of antibiotics in the presence of ¼× sub-MIC of B2088” value is 200 µg/mL and the “MIC of antibiotics in the presence of ½× sub-MIC of B2088” value came to 200 µg/mL.
